{"source": "patent US20200305426A1", "about": "“BOOSTERS FOR ANTIMICROBIAL, PRESERVATIVE AND BIOCIDAL APPLICATIONS” (EMERALD KALAMA CHEMICAL, LLC, priority 2017, published 2020)", "key": {"Pseudomonas aeruginosa": {"tested_on": "Pseudomonas aeruginosa", "details": "tryptic soy broth pH 6.5; with 0.25 wt. % sodium benzoate and 0.25 wt. % benzyl alcohol; two days", "from_the_text": "(§1) Challenge Testing Methodology—Experimental—Several industry standard testing methodologies exist for evaluating antimicrobial efficacy. Two common examples of such standards include United States Pharmacopeia (USP 51) and European Pharmacopeia (EP) testing methodology. These methodologies are particularly useful in that they have criteria and methodologies distinguishing between oral products, topical products and pharmaceutical products, among others.\nIn conducting the testing, the compound or product to be evaluated is separated out into individual containers, each being challenged with one of the method-specified microorganisms (S. aureus—ATCC 6538 USP51/EP, E. coli—ATCC 8739 EP, P. aeruginosa—ATCC 9027 USP51/EP, C. albicans—ATCC 10231 USP51/EP, and A. brasiliensis—ATCC 16404 USP51/EP) at a concentration of >1×10^5 CFU/g or ml. The initial concentration of each microorganism is determined by inoculating a control substance and using standard dilution and plating techniques. […] The inoculated broth is held at room temperature and is evaluated at specific intervals. USP-51 evaluates at the 14-day and 28-day intervals. EP evaluates results at 2-day, 7-day, 14-day, and 28-day. […] After a period of incubation (48 hours for bacteria, up to 5 days for yeast and mold) surviving microorganisms are counted, and the log reduction of each microorganism at each interval is reported. […]"}, "[1]": {"tested_on": "S. aureus, E. coli, P. aeruginosa, C. albicans, and A. brasiliensis", "experiment": "Challenge test in skin lotion formulation, European Pharmacopeia criteria", "assay_type": "cell-based", "details": "for European Pharmacopeia 14-day criteria / European Pharmacopeia two-day criteria: skin lotion; for European Pharmacopeia 14-day criteria: 0.25 wt. % booster with 0.5 wt. % sodium benzoate and 0.66 wt. % benzyl alcohol; for European Pharmacopeia two-day criteria: 0.25 wt. % booster with 0.5 wt. % sodium benzoate and 1 wt. % benzyl alcohol; for European Pharmacopeia two-day and 14-day criteria: skin lotion pH 6.5", "experimental": "(§2) For the European Pharmacopeia, a “pass” test for efficacy is a two-log reduction for bacteria after two days, a three-log reduction in bacteria after […], a two-log reduction in mold and yeast at 14 days and no increase at 28 days.\nSkin Lotion Formulation Experimental—An exemplary, model skin lotion having a pH of 6.5 as set forth below in Table 1 was prepared for testing. The invention is not limited to use in this specific lotion but was used to illustrate the advantages of the invention.\nIn this example, 3-phenyl propanol was used to enhance the performance of low concentrations of sodium benzoate and benzyl alcohol. This example evaluated boosting performance of 3-phenyl propanol in a skin lotion formulation having a pH of 6.5, the ingredients of which are listed in Table 1. Each formulation contained 0.25 wt. % of sodium benzoate and 0.25 wt. % of benzyl alcohol.\nIn this example, EDTA was used to enhance the performance of sodium benzoate and benzyl alcohol in a skin lotion formulation at […], the ingredients of which are set forth in Table 1. Each formulation contained 0.5 wt. % of sodium benzoate and 0.25 wt. % of EDTA with benzyl alcohol varying up to 1 wt. %. The control was comprised of 0.5 wt. % sodium benzoate and 1 wt. % benzyl alcohol without EDTA.\nIn this example, sodium gluconate was used to enhance the performance of sodium benzoate and benzyl alcohol in a skin lotion formulation at pH 6.5, the ingredients of which are set forth in Table 1. Each formulation contained 0.5 wt. % of sodium benzoate and 0.25 wt. % of sodium gluconate, with benzyl alcohol varying up to 1 wt. %. The control comprised 0.5 wt. % sodium benzoate and 1 wt. % benzyl alcohol without sodium gluconate.\nIn this example, caprylyl glycol was used to enhance the performance of sodium benzoate and benzyl alcohol in a skin lotion formulation at pH 6.5, the ingredients of which are set forth in Table 1. FIGS. 27 and 28 reflect log reduction data of colony forming units (CFU) of microbe strains exposed to sodium benzoate, benzyl alcohol, and caprylyl glycol concentrations in skin lotion media after two and fourteen days. […] A control was utilized comprising 0.5 wt. % sodium benzoate and 1 wt. % benzyl alcohol without caprylyl glycol."}, "[2]": {"tested_on": "A. brasiliensis, C. albicans, E. coli, P. aeruginosa, and S. aureus", "experiment": "Challenge test (USP-51 / European Pharmacopeia) in tryptic soy broth, log reduction of CFU", "assay_type": "cell-based"}, "[3]": {"tested_on": "A. brasiliensis, C. albicans, E. coli, P. aeruginosa, and S. aureus", "experiment": "Challenge test (USP-51 / European Pharmacopeia) in tryptic soy broth, log reduction of CFU", "assay_type": "cell-based", "details": "tryptic soy broth pH 6.5", "from_the_text": "as §1\nIn conducting the testing, the compound or product to be evaluated is separated out into individual containers, each being challenged with one of the method-specified microorganisms (S. aureus—ATCC 6538 USP51/EP, E. coli—ATCC 8739 EP, P. aeruginosa—ATCC 9027 USP51/EP, C. albicans—ATCC 10231 USP51/EP, and A. brasiliensis—ATCC 16404 USP51/EP) at a concentration of >1×10^5 CFU/g or ml. The initial concentration of each microorganism is determined by inoculating a control substance and using standard dilution and plating techniques. […] The inoculated broth is held at room temperature and is evaluated at specific intervals. USP-51 evaluates at the 14-day and 28-day intervals. EP evaluates results at 2-day, 7-day, 14-day, and 28-day. At each contact time, the inoculated product is chemically neutralized and plated using standard dilution and plating techniques. After a period of incubation (48 hours for bacteria, up to 5 days for yeast and mold) surviving microorganisms are counted, and the log reduction of each microorganism at each interval is reported.\nFor the European Pharmacopeia, a “pass” test for efficacy is a two-log reduction for bacteria after two days, a three-log reduction in bacteria after […], a two-log reduction in mold and yeast at 14 days and no increase at 28 days. For the USP-51, a two-log reduction in bacteria is required at 14 days and no increase at 28 days. For mold and yeast, USP-51 requires no increase at 14 days and 28 days. “No increase” is defined as a […]. […]\nThe challenge testing was conducted by a Food and Drug Administration (FDA) certified outside testing lab utilizing standard USP-51 and European Pharmacopeia methodologies as summarized in the Challenge Testing Methodology section above. Antimicrobial efficacy was determined in tryptic soy broth growth media, pH-balanced with sodium hydroxide or hydrochloric acid as required to achieve specific pH ranges. […]\nThe boosting efficacy of various concentrations of EDTA (0 to 0.5 wt. %, with “0” being a control without the EDTA booster) in tryptic soy broth growth media at pH 6.5 was evaluated against various microbes (A. brasiliensis, C. albicans, E. coli, P. aeruginosa, and S. aureus). […]"}, "A. brasiliensis": {"tested_on": "A. brasiliensis", "experiment": "Challenge test in tryptic soy broth, log reduction of CFU", "assay_type": "cell-based", "details": "with 0.25 wt. % sodium benzoate and 0.25 wt. % benzyl alcohol, 14 and 28 days", "experimental": "as §2\nData was reported at 30 minutes, two days, fourteen days and twenty-eight days.\n[…] The data was collected at 30 minutes, two days, fourteen days and twenty-eight days."}, "[4]": {"tested_on": "K. aerogenes (ATCC 13048) and P. aeruginosa (ATCC 9027)", "experiment": "Challenge test in tryptic soy broth at pH 9.0, log reduction of CFU", "assay_type": "cell-based", "details": "2.5 wt. % alone; tryptic soy broth pH 9.0; up to one week", "from_the_text": "FIG. 29 reflects log reduction data for colony forming units (CFU) of microbe strains in tryptic soy broth growth media at pH 9.0 up to 28 days.\nFIG. 30 reflects log reduction data for colony forming units (CFU) of microbe strains exposed to benzylamine at 2.5 wt. % in tryptic soy broth at pH 9.0 up to one week.\nStrains of K. aerogenes (ATCC 13048) and P. aeruginosa (ATCC 9027) were utilized for testing as they are commonly found in many water-based products, including without limitation cosmetics and coatings. These organisms were challenged into the soy broth using the same methods as in the other examples. Time points were selected based on time points from ASTM 2574, which is a method for evaluating antimicrobial efficacy in waterborne emulsion based paints."}, "[5]": {"details": "tryptic soy broth pH 8, booster at various concentrations with 0.25 wt. % sodium benzoate and 0.25 wt. % benzyl alcohol"}}, "data": [{"smiles": "O=C(O)CN(CCN(CC(=O)O)CC(=O)O)CC(=O)O", "note": "[EDTA, ethylenediaminetetraacetic acid]", "values": [{"measurement": "activity against Pseudomonas aeruginosa", "setting": "Pseudomonas aeruginosa", "value": "particularly good activity"}, {"measurement": "European Pharmacopeia 14-day criteria", "setting": "[1]", "value": "met the 14-day criteria"}, {"measurement": "European Pharmacopeia two-day criteria", "setting": "[1]", "value": "met the two-day criteria"}, {"measurement": "antimicrobial performance (log reduction of CFU)", "setting": "[2]; tryptic soy broth pH 6.5, booster 0 to 0.5 wt. % with 0.25 wt. % sodium benzoate and 0.25 wt. % benzyl alcohol, 30 minutes, two, fourteen, twenty-eight days", "value": "improved antimicrobial performance"}, {"measurement": "log reduction as a function of booster concentration", "setting": "[2]; tryptic soy broth pH 8.0, booster 0 to 0.5 wt. % with 0.25 wt. % sodium benzoate and 0.25 wt. % benzyl alcohol", "value": "increased log reduction with increasing concentrations"}, {"measurement": "antimicrobial performance (log reduction of CFU)", "setting": "[2]; [5]", "value": "improved antimicrobial performance"}]}, {"smiles": "OCCCc1ccccc1", "note": "[3-phenyl propanol]", "values": [{"measurement": "European Pharmacopeia two-day and 14-day criteria", "setting": "[1]; 0.35 wt. % booster with 0.25 wt. % sodium benzoate and 0.25 wt. % benzyl alcohol", "value": "met the two-day and 14-day criteria"}]}, {"smiles": "O=C([O-])[C@H](O)[C@@H](O)[C@H](O)[C@H](O)CO.[Na+]", "note": "[sodium gluconate]", "values": [{"measurement": "log reduction as a function of booster concentration", "setting": "[3]; booster 0 to 0.5 wt. % with 0.25 wt. % sodium benzoate and 0.25 wt. % benzyl alcohol, seen at 14 and 28 days", "value": "increased log reduction with increased concentration"}, {"measurement": "booster strength compared with EDTA", "setting": "[3]; sodium benzoate/benzyl alcohol combination", "value": "not as strong a booster as EDTA"}, {"measurement": "activity against the mold A. brasiliensis", "setting": "A. brasiliensis; tryptic soy broth pH 6.5", "value": "Good activity"}, {"measurement": "activity against the mold A. brasiliensis", "setting": "A. brasiliensis; tryptic soy broth pH 8", "value": "Particularly good activity"}, {"measurement": "European Pharmacopeia 14-day criteria", "setting": "[1]", "value": "met the 14-day criteria"}, {"measurement": "European Pharmacopeia two-day criteria", "setting": "[1]", "value": "met the two-day criteria"}, {"measurement": "antimicrobial performance (log reduction of CFU)", "setting": "[2]; [5]", "value": "improved antimicrobial performance"}]}, {"smiles": "NCc1ccccc1", "note": "[benzylamine]", "values": [{"measurement": "antimicrobial effectiveness (log reduction of CFU) compared to control", "setting": "[4]", "value": "antimicrobial effectiveness achieved"}]}, {"smiles": "CCCCCCC(O)CO", "note": "(stereo not drawn) [caprylyl glycol]", "values": [{"measurement": "antimicrobial boosting potential at lowest use concentration", "setting": "[3]; 1 wt. % booster with 0.25 wt. % sodium benzoate and 0.25 wt. % benzyl alcohol", "value": "outstanding antimicrobial boosting potential"}, {"measurement": "two-day log reduction", "setting": "[3]; caprylyl glycol up to 5 wt. %, regardless of concentration, 0.25 wt. % sodium benzoate and 0.25 wt. % benzyl alcohol, two days", "value": "two-log reduction achieved against all microbes tested"}, {"measurement": "European Pharmacopeia two-day and 14-day criteria", "setting": "[1]; 0.5 wt. % booster with 0.25 wt. % sodium benzoate and 0.25 wt. % benzyl alcohol", "value": "met the two-day and 14-day criteria"}, {"measurement": "antimicrobial performance (log reduction of CFU)", "setting": "[2]; [5]", "value": "improved antimicrobial performance"}, {"measurement": "two-day log reduction", "setting": "[2]; tryptic soy broth pH 8, caprylyl glycol up to 5 wt. %, regardless of concentration, 0.25 wt. % sodium benzoate and 0.25 wt. % benzyl alcohol, two days", "value": "two-log reduction achieved against all microbes tested"}]}, {"smiles": "OCc1ccccc1", "note": "[benzyl alcohol, reference compound]", "values": [{"measurement": "antimicrobial effectiveness (log reduction of CFU) compared to control", "setting": "[4]", "value": "exactly the same as for benzylamine"}]}]}
